Legend:
Cbl-b [1] = target: T1, Cbl-b (Homo sapiens, UniProt Q13191); test: Cbl-b inhibition assay (Cbl-b activity assay, FRET, Biological Example 1; 100 mM NaCl, 60 nM Src kinase); type: biochemical; details: upper bound stated in text lists; read-out: IC50 values in the Cbl-b inhibition assay of Biological Example 1
Outline: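 Inhibition is read as loss of FRET signal. The signal arises when Src-phosphorylated, N-terminal biotinylated Avi-Cbl-b (captured by streptavidin-terbium) binds UbcH5B carrying covalently linked Bodipy-Fluorescein-tagged ubiquitin.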

Cbl-b (residues 36-427) = Cbl-b (residues 36-427) (Homo sapiens, UniProt Q13191); test: Cbl-b binding assay (SPR, Biacore T200); details: 20° C., 1:1 binding model
Cbl-b (residues 36-427), sequence (Q13191 36-427): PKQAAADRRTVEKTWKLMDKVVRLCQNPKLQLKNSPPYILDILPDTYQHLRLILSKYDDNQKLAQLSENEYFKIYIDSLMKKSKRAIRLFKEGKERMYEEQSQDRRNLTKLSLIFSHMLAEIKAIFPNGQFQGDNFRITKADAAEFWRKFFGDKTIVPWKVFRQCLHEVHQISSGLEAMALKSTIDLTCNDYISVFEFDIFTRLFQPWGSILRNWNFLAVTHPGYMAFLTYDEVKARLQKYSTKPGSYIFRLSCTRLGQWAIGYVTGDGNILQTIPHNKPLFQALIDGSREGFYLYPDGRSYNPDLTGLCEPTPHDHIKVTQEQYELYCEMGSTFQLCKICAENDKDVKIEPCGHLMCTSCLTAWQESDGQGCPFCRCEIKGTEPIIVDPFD
Outline: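 Affinities derived from global 1:1 steady-state or kinetic fits of double-referenced, solvent-corrected SPR data, 20 °C, NeutrAvidin-capture chip. Compound series (top 100 or 50 μM, 8–10 points) injected 50 s, 90–180 s dissociation. Asterisked values used 50 mM instead of 100 mM NaCl and 30 nM Src kinase.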

T-cell [2] = test: IL-2 secretion from T-cells stimulated with anti-CD3 antibody alone (Biological Example 2); type: cell-based; details: primary human total T-cells, read-out: IL-2 secretion, Anti-CD3 stimulation, fold change over baseline; for fold induction at 1 µM: 1 μM compound; for fold induction at 8 µM: 8 μM compound
T-cell [3] = test: IL-2 secretion from T-cells co-stimulated with anti-CD3 and anti-CD28 antibody (Biological Example 2); type: cell-based, human; details: Homo sapiens, T-cell, primary human total T-cells, baseline = anti-CD3/anti-CD28 stimulated cells without inhibitor, read-out: IL-2 secretion, Anti-CD3/Anti-CD28 stimulation, fold change over baseline; for fold induction at 0.3 µM: 0.3 μM compound; for fold induction at 1 µM: 1 μM compound; for fold induction at 4 µM: 4 μM compound
Outline: (§1)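 No assay protocol given; T-cells stimulated with anti-CD3 alone or anti-CD3 plus anti-CD28, with or without Cbl-b inhibitor. Activation read as IL-2 secretion or CD25 surface staining, expressed as fold over baseline from uninhibited cells […].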

Cbl-b [4] = target: T1, Cbl-b; test: Cbl-b activity assay (Cbl-b inhibition assay), TR-FRET of Cbl-b interaction with UbcH5B-Ub; type: biochemical; details: assay buffer with 100 mM NaCl, 60 nM Src kinase; read-out: Cbl-b activity IC50
Outline: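 TR-FRET readout of Cbl-b binding to Bodipy-fluorescein N-terminally labeled Ub conjugated to UbcH5B C85K, measured with compound present. After compound incubation, 60 nM Src kinase with 1 mM ATP and 5 mM MgCl2 (final) was added for 1.5 h, then a further 1 h incubation; asterisked values used 50 mM NaCl buffer and 30 nM Src.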

T-cell [5] = test: CD25 cell surface staining on T-cells co-stimulated with anti-CD3 and anti-CD28 antibody (Biological Example 2); type: cell-based, human; details: Homo sapiens, T-cell, primary human total T-cells, baseline = anti-CD3/anti-CD28 stimulated cells without inhibitor, read-out: CD25 staining, Anti-CD3/Anti-CD28 stimulation, fold change over baseline; for fold induction at 0.3 µM: 0.3 μM compound; for fold induction at 1 µM: 1 μM compound; for fold induction at 4 µM: 4 μM compound
Outline: as §1

T-cell [6] = test: CD25 cell surface staining on T-cells stimulated with anti-CD3 antibody alone (Biological Example 2); type: cell-based; details: primary human total T-cells, baseline = anti-CD3/anti-CD28 stimulated cells without inhibitor, read-out: CD25 staining, Anti-CD3 stimulation, fold change over baseline; for fold induction at 1 µM: 1 μM compound; for fold induction at 8 µM: 8 μM compound

T1 sequence (Q13191 36-427): as above

Row | SMILES | IC50 (Cbl-b [1]) | Kd (Cbl-b (residues 36-427)) | fold induction at 1 µM (T-cell [2]) | fold induction at 8 µM (T-cell [2]) | fold induction at 0.3 µM (T-cell [3]) | fold induction at 1 µM (T-cell [3]) | fold induction at 4 µM (T-cell [3]) | IC50 (Cbl-b [4]) | fold induction at 0.3 µM (T-cell [5]) | fold induction at 1 µM (T-cell [5]) | fold induction at 4 µM (T-cell [5]) | fold induction at 1 µM (T-cell [6]) | fold induction at 8 µM (T-cell [6])
1 | C[C@@H]1[C@@H](c2nncn2C)[C@H]1c1cccc(N2Cc3c(cccc3C(F)(F)F)C2=O)c1 [Compound 375, 2-[3-[(1 S,2S,3R)-2-methyl-3-(4-methyl-4H-1,2,4-triazol-3-yl)cyclopropyl]phenyl]-4-(trifluoromethyl)-2,3-dihydro-1H-isoindol-1-one] | ≤ 100 nM | < 100 nM | > 0.201 | > 0.201 | 2.51 to 5 | 5 to 7.5 | > 7.5 | < 100 nM | 1.01 to 1.3 | 1.31 to 1.5 | 1.31 to 1.5 | > 1 | > 1
2 | Cn1cnnc1C(F)(F)[C@](C)(F)c1cccc(N2Cc3c(cc(CN4CC[C@H](S(C)(=O)=O)C4)cc3C(F)(F)F)C2=O)c1 [Compound 457, 6-(((S)-3-(Methylsulfonyl)pyrrolidin-1-yl)methyl)-2-(3-((R)-1,1,2-trifluoro-1-(4-methyl-4H-1,2,4-triazol-3-yl)propan-2-yl)phenyl)-4-(trifluoromethyl)isoindolin-1-one] | ≤ 100 nM | < 100 nM | 0.101 to 0.15 | > 0.201 | 2.51 to 5 | 2.51 to 5 | > 7.5 | < 100 nM | 1.01 to 1.3 | 1.01 to 1.3 | 1.01 to 1.3 | 0.801 to 1 | > 1
3 | C[C@H](Cc1nncn1C)c1cccc(N2Cc3c(cc(CN4CC(O)C(F)(F)C4)cc3C(F)(F)F)C2=O)c1 (stereo partly drawn) [Compound 417, 6-((3,3-difluoro-4-hydroxypyrrolidin-1-yl)methyl)-2-(3-((R)-1-(4-methyl-4H-1,2,4-triazol-3-yl)propan-2-yl)phenyl)-4-(trifluoromethyl)isoindolin-1-one] | ≤ 100 nM | < 100 nM | 0.101 to 0.15 | > 0.201 | 2.51 to 5 | 5 to 7.5 | > 7.5 | < 100 nM | 1.01 to 1.3 | 1.31 to 1.5 | 1.31 to 1.5 | > 1 | > 1
4 | C[C@@H](c1cccc(N2Cc3c(cccc3C(F)(F)F)C2=O)c1)C(F)(F)c1nncn1C [Compound 467a, (S)-2-(3-(1,1-difluoro-1-(4-methyl-4H-1,2,4-triazol-3-yl)propan-2-yl)phenyl)-4-(trifluoromethyl)isoindolin-1-one] | ≤ 300 nM | 301 to 1000 nM | < 0.05 | 0.101 to 0.15 | 1.01 to 2.5 | 1.01 to 2.5 | 2.51 to 5 | 100 to 300 nM | 1.01 to 1.3 | 1.01 to 1.3 | 1.01 to 1.3 | 0.601 to 0.8 | 0.801 to 1
5 | Cc1n[nH]c(C)c1-c1cc2c(c(C(F)(F)F)c1)CN(c1cccc([C@H](C)Cc3nncn3C)c1)C2=O [Compound 378, 6-(3,5-dimethyl-1H-pyrazol-4-yl)-2-{3-[(2R)-1-(4-methyl-4H-1,2,4-triazol-3-yl)propan-2-yl]phenyl}-4-(trifluoromethyl)-2,3-dihydro-1H-isoindol-1-one] | ≤ 100 nM | < 100 nM | > 0.201 | > 0.201 | 2.51 to 5 | > 7.5 | > 7.5 | < 100 nM | 1.31 to 1.5 | 1.51 to 1.75 | > 1.76 | > 1 | > 1
